Here are results for 28 compounds from US20260115185A1, “QUINOLINE DERIVATIVES WHICH ACT AS KAPPA-OPIOID RECEPTOR ANTAGONISTS” (The Scripps Research Institute, priority 2023, published 2026).

One assay concerns the target T1, mu opioid receptor (MOR) (Homo sapiens, UniProt P35372).
T1 construct: host or cells: U2OS (Discover X OPRMu1-U2OS, PathHunter)
Put plainly: OPRMu1 Discover X β-arrestin Assay, antagonist mode (U2OS cells, DAMGO EC80 challenge). It is filed as cell-based. The method, boiled down:
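PathHunter U2OS cells with β-gal fragment-complementation readout for β-arrestin recruitment to OPRMu1. Cells were preincubated with compound (10-point, 1:3 series from nominal 10 micromolar) for 30 min at 37 °C, then challenged with 303 nM DAMGO (EC80) for 3 h. Luminescence gave percent inhibition.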

Assay [1] deals with T2, kappa opioid receptor (KOR) (Homo sapiens, UniProt P41145).
T2 construct: host or cells: U2OS (Tango OPRK1-bla U2OS)
Put plainly: OPRKappa 1 Tango B-Arrestin Assay, antagonist mode (Tango OPRK1-bla U2OS cells, U50488 EC80 challenge). It is filed as cell-based. Particulars: for Selectivity (MOR/KOR): Kappa selectivity, MOR IC50 / KOR IC50; for IC50: antagonist mode, Tango OPRK1-bla U2OS cells, 6 nM U50488 challenge. The method, boiled down: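 Tango OPRK1-bla U2OS cells, β-arrestin recruitment read as β-lactamase FRET (CCF4-AM, 460/590 nm emission). Compounds, 10-point 1:3 series from nominal 10 µM in quadruplicate, preincubated 30 min at 37 °C, then challenged with U50488 at 6 nM final (EC80) for 4 h; percent inhibition from median ratio.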

T1 sequence (P35372 whole entry): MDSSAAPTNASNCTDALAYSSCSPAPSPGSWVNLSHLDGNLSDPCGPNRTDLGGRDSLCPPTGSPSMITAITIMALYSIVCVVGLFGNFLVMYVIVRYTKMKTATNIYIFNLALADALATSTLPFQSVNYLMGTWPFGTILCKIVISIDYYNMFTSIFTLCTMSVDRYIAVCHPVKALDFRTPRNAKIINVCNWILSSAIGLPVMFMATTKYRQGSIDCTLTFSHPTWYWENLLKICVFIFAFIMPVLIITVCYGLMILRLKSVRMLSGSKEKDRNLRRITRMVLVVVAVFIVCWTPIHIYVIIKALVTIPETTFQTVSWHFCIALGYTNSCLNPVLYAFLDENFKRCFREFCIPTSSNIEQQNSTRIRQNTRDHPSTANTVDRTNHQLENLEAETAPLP
T2 sequence (P41145 whole entry): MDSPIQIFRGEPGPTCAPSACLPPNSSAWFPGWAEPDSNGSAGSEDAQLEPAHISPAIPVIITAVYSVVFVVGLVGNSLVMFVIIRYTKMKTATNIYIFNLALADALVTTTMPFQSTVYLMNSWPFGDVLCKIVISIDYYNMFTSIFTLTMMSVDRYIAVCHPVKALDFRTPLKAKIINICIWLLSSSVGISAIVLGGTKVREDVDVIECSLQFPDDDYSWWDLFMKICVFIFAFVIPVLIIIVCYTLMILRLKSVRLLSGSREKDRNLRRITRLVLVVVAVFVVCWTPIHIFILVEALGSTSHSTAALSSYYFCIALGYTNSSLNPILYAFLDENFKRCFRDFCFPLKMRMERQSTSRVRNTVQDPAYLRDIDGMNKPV

As to `CCc1cc(F)c2nc(N3CCN(/C(=N\C#N)NC4CCOCC4)C[C@H]3C)c(-c3ccn(C)n3)c(C)c2c1` [Compound 11, (R,E)-N′-cyano-4-(6-ethyl-8-fluoro-4-methyl-3-(1-methyl-1H-pyrazol-3-yl)quinolin-2-yl)-3-methyl-N-(tetrahydro-2H-pyran-4-yl)piperazine-1-carboximidamide], the IC50 (in general, the concentration that inhibits the measured activity by half) on mu opioid receptor (MOR) fell in the range of 1 to 10 nM; in assay [1], 10 to 100 nM. Moreover, in assay [1], the “Selectivity (MOR/KOR)” value was “++ (between 10- and 100-fold selectivity)”.

With `CCc1cc(F)c2nc(N3CC[C@@H](N[C@@H]4CCOC4)[C@H](F)C3)c(-c3ccn(C)n3)c(C)c2c1` [Compound 196, (3R,4R)-1-(6-ethyl-8-fluoro-4-methyl-3-(1-methyl-1H-pyrazol-3-yl)quinolin-2-yl)-3-fluoro-N—((R)-tetrahydrofuran-3-yl)piperidin-4-amine], the IC50 against mu opioid receptor (MOR) was above 1000 nM. Further, in assay [1], the “Selectivity (MOR/KOR)” value is “+++ (between 100- to 1000-fold selective)” and the IC50 is 1 to 10 nM.

For the compound `CCc1cc(F)c2nc(N3CCN(CCC4CC(F)(F)C4)C[C@H]3C)c(-c3nc(C)no3)c(C)c2c1` [Compound 186], the IC50 against mu opioid receptor (MOR) lay within 100 to 1000 nM. In assay [1], the “Selectivity (MOR/KOR)” value is on record as “+++ (between 100- to 1000-fold selective)” and the IC50 lay within 1 to 10 nM.

At mu opioid receptor (MOR), `CCc1cc(F)c2nc(N3CCC(NCC4(F)CC4)CC3)c(-c3cc(C)n(C)n3)c(C)c2c1` [Compound 19, 1-(3-(1,5-dimethyl-1H-pyrazol-3-yl)-6-ethyl-8-fluoro-4-methylquinolin-2-yl)-N-((1-fluorocyclopropyl)methyl)piperidin-4-amine] registered an IC50 of 100 to 1000 nM. For the same compound, in assay [1], the “Selectivity (MOR/KOR)” value is recorded as “+++ (between 100- to 1000-fold selective)” and the IC50 lay in the range of 1 to 10 nM.

`CCc1cc(F)c2nc(N3CC[C@@H](N[C@@H]4CCCOC4)C[C@@H]3C)c(-c3ccn(C)n3)c(C)c2c1` [Compound 120] returned an IC50 on mu opioid receptor (MOR) above 1000 nM. In assay [1], the “Selectivity (MOR/KOR)” value is given as “++++ (more than 1000-fold selectivity over MOR)” and the IC50 was below 1 nM.

`CCc1cc(F)c2nc(N3CCN(C(=O)CN4CC[C@@H](O)C4)C[C@H]3C)c(-c3nc(C)no3)c(C)c2c1` [Compound 145]: on mu opioid receptor (MOR), the IC50 was above 1000 nM. For the same compound, in assay [1], the “Selectivity (MOR/KOR)” value is reported as “++++ (more than 1000-fold selectivity over MOR)” and the IC50 is 1 to 10 nM.

As for `CCc1cc(F)c2nc(N3CCC(N[C@@H]4CCOC[C@H]4F)CC3)c(-c3cc(C)n(C)n3)c(C)c2c1` [Compound 4, 1-(3-(1,5-dimethyl-1H-pyrazol-3-yl)-6-ethyl-8-fluoro-4-methylquinolin-2-yl)-N-((3S,4R)-3-fluorotetrahydro-2H-pyran-4-yl)piperidin-4-amine], at mu opioid receptor (MOR), the IC50 lay in the range of 100 to 1000 nM. In assay [1], the “Selectivity (MOR/KOR)” value is “++ (between 10- and 100-fold selectivity)”; the IC50 lay in the range of 10 to 100 nM.

As for `CCc1cc(F)c2nc(N3CCN(C[C@H]4CCCO4)C[C@H]3C)c(-c3nc(C)no3)c(C)c2c1` [Compound 30], the figures for the IC50 (against mu opioid receptor (MOR); in assay [1]) were above 1000 nM and 1 to 10 nM, respectively. For the same compound, the “Selectivity (MOR/KOR)” value in assay [1] is “+++ (between 100- to 1000-fold selective)”.

At mu opioid receptor (MOR), `CCc1cc(-c2cc(C)nn2C)c2nc(N3CC[C@H](NC4CCOCC4)[C@H](F)C3)c(-c3ccn(C)n3)c(C)c2c1` [Compound 96] gave an IC50 above 1000 nM. In assay [1], the “Selectivity (MOR/KOR)” value is “+++ (between 100- to 1000-fold selective)” and the IC50 lay within 1 to 10 nM.

Consider `CCc1cc(F)c2nc(N3CCN(C(=O)CN(C)C)C[C@H]3C)c(-c3nc(C)no3)c(C)c2c1` [Compound 44], for which the IC50 on mu opioid receptor (MOR) is above 1000 nM. For the same compound, in assay [1], the “Selectivity (MOR/KOR)” value is reported as “+++ (between 100- to 1000-fold selective)” and the IC50 was in the range of 10 to 100 nM.

Turning to `CCc1cc(F)c2nc(N3CCC(N[C@@H]4CCOC[C@H]4O)CC3)c(-c3cc(C)n(C)n3)c(C)c2c1` [Compound 17, (3S,4R)-4-((1-(3-(1,5-dimethyl-1H-pyrazol-3-yl)-6-ethyl-8-fluoro-4-methylquinolin-2-yl)piperidin-4-yl)amino)tetrahydro-2H-pyran-3-ol], the IC50 lay in the range of 100 to 1000 nM against mu opioid receptor (MOR) and 1 to 10 nM in assay [1]. In addition, the “Selectivity (MOR/KOR)” value in assay [1] is “++ (between 10- and 100-fold selectivity)”.

For `CCc1cc(-c2ccn(C)n2)c2nc(N3CCC(N[C@H]4CCOC4)CC3)c(-c3ccn(C)n3)c(C)c2c1` [Compound 99], the IC50 is above 1000 nM on mu opioid receptor (MOR) and below 1 nM in assay [1]. Moreover, the “Selectivity (MOR/KOR)” value in assay [1] was “++++ (more than 1000-fold selectivity over MOR)”.

`CCc1cc(F)c2nc(N3CCN(C(=O)[C@@H](C)N(CC)CC)C[C@H]3C)c(-c3cc(C)no3)c(C)c2c1` [Compound 180]: the 50% inhibitory concentration (IC50) against mu opioid receptor (MOR) was above 1000 nM. Further, in assay [1], the “Selectivity (MOR/KOR)” value is reported as “+++ (between 100- to 1000-fold selective)” and the IC50 was 1 to 10 nM.

`CCc1cc(F)c2nc(N3CCN(C(=O)[C@@H]4C[C@@H](O)CN4C)C[C@H]3C)c(-c3nc(C)no3)c(C)c2c1` [Compound 160] displayed an IC50 against mu opioid receptor (MOR) above 1000 nM. In assay [1], the “Selectivity (MOR/KOR)” value was “+++ (between 100- to 1000-fold selective)” and the IC50 lay in the range of 10 to 100 nM.

For `CCc1cc(F)c2nc(N3CCN(C(=O)[C@@H]4CCCCN4C)C[C@H]3C)c(-c3nc(C)no3)c(C)c2c1` [Compound 188], the IC50 against mu opioid receptor (MOR) is above 1000 nM. Further, in assay [1], the “Selectivity (MOR/KOR)” value is recorded as “+++ (between 100- to 1000-fold selective)” and the IC50 fell in the range of 10 to 100 nM.

For `CCc1cc(F)c2nc(N3CCN(CC4(O)CCOCC4)C[C@H]3C)c(-c3nc(C)no3)c(C)c2c1` [Compound 206], the IC50 at mu opioid receptor (MOR) is above 1000 nM. In assay [1], the “Selectivity (MOR/KOR)” value is reported as “++++ (more than 1000-fold selectivity over MOR)” and the IC50 lay in the range of 1 to 10 nM.

As to `CCc1cc(F)c2nc(N3CC[C@H](N[C@@H]4CCOC4)C[C@@H]3C)c(-c3ccn(C)n3)c(C)c2c1` [Compound 117], the IC50 on mu opioid receptor (MOR) was 100 to 1000 nM. Also, in assay [1], the “Selectivity (MOR/KOR)” value was “+++ (between 100- to 1000-fold selective)” and the IC50 lay within 1 to 10 nM.

For `CCc1cc(F)c2nc(N3CCN(C4CC5(CCOCC5)C4)C[C@H]3C)c(-c3nc(C)no3)c(C)c2c1` [Compound 42], the IC50 against mu opioid receptor (MOR) is above 1000 nM. In addition, in assay [1], the “Selectivity (MOR/KOR)” value is listed as “+++ (between 100- to 1000-fold selective)” and the IC50 was 10 to 100 nM.

For `CCc1cc(F)c2nc(N3CC[C@@H](N[C@@H]4CCOC4)C[C@@H]3C)c(-c3cc(C)no3)c(C)c2c1` [Compound 138], the IC50 against mu opioid receptor (MOR) was above 1000 nM. In addition, in assay [1], the “Selectivity (MOR/KOR)” value is given as “+++ (between 100- to 1000-fold selective)” and the IC50 lay within 10 to 100 nM.

With `CCc1cc(F)c2nc(N3CCC(N[C@H]4CCOC[C@H]4F)CC3)c(-c3cc(C)n(C)n3)c(C)c2c1` [Compound 5, 1-(3-(1,5-dimethyl-1H-pyrazol-3-yl)-6-ethyl-8-fluoro-4-methylquinolin-2-yl)-N-((3S,4S)-3-fluorotetrahydro-2H-pyran-4-yl)piperidin-4-amine], the IC50 at mu opioid receptor (MOR) was in the range of 100 to 1000 nM; in assay [1], 1 to 10 nM. The “Selectivity (MOR/KOR)” value in assay [1] is recorded as “+++ (between 100- to 1000-fold selective)”.

Take `CCc1cc(F)c2nc(N3CCC(N[C@H]4CCCC(F)(F)C4)CC3)c(-c3ccn(C)n3)c(C)c2c1` [Compound 73, (S)—N-(3,3-difluorocyclohexyl)-1-(6-ethyl-8-fluoro-4-methyl-3-(1-methyl-1H-pyrazol-3-yl)quinolin-2-yl)piperidin-4-amine]: at mu opioid receptor (MOR), the IC50 lay within 100 to 1000 nM. For the same compound, in assay [1], the “Selectivity (MOR/KOR)” value is “++ (between 10- and 100-fold selectivity)”; the IC50 is 1 to 10 nM.

In the case of `CCc1cc(F)c2nc(N3CC[C@@H](N[C@@H]4CCCOC4)C[C@@H]3C)c(-c3cc(C)no3)c(C)c2c1` [Compound 143], the figures for the IC50 (against mu opioid receptor (MOR); in assay [1]) were above 1000 nM and 10 to 100 nM, respectively. Also, the “Selectivity (MOR/KOR)” value in assay [1] is on record as “++++ (more than 1000-fold selectivity over MOR)”.

On to `CCc1cc(F)c2nc(N3CC[C@H](NC4CCOCC4)[C@H](F)C3)c(-c3nn(C)cc3F)c(C)c2c1F` [Compound 70], for which the IC50 against mu opioid receptor (MOR) was above 1000 nM. For the same compound, in assay [1], the “Selectivity (MOR/KOR)” value is reported as “+++ (between 100- to 1000-fold selective)” and the IC50 is 1 to 10 nM.

Consider `CCc1cc(F)c2nc(N3CCN(CC4CCOCC4)C[C@H]3C)c(-c3nc(C)no3)c(C)c2c1` [Compound 49, (R)-5-(6-ethyl-8-fluoro-4-methyl-2-(2-methyl-4-((tetrahydro-2H-pyran-4-yl)methyl)piperazin-1-yl)quinolin-3-yl)-3-methyl-1,2,4-oxadiazole], for which the IC50 on mu opioid receptor (MOR) was above 1000 nM; in assay [1], 10 to 100 nM. Besides, in assay [1], the “Selectivity (MOR/KOR)” value is “+++ (between 100- to 1000-fold selective)”.

For the compound `CCc1cc(F)c2nc(N3CCN(C(=O)[C@H]4COCCN4C)C[C@H]3C)c(-c3nc(C)no3)c(C)c2c1` [Compound 184], on mu opioid receptor (MOR), the IC50 is above 1000 nM. Also, in assay [1], the “Selectivity (MOR/KOR)” value is reported as “+++ (between 100- to 1000-fold selective)” and the IC50 is 10 to 100 nM.

As to `CCc1cc(F)c2nc(N3CC[C@H]4[C@H](CCN4C[C@@H]4CCCOC4)C3)c(-c3ccn(C)n3)c(C)c2c1` [Compound 130], the IC50 against mu opioid receptor (MOR) was above 1000 nM. In assay [1], the “Selectivity (MOR/KOR)” value was “++ (between 10- and 100-fold selectivity)”; the IC50 lay in the range of 10 to 100 nM.

`CCc1cc(F)c2nc(N3CCC(N[C@H]4CCOC4)CC3)c(-c3cc(C(F)(F)F)n(C)n3)c(C)c2c1` [Compound 84] came in with an IC50 at mu opioid receptor (MOR) above 1000 nM. In addition, in assay [1], the “Selectivity (MOR/KOR)” value was “+++ (between 100- to 1000-fold selective)” and the IC50 fell in the range of 10 to 100 nM.

Compound `CCc1cc(F)c2nc(N3[C@H](C)CN(C(=O)CN4CCCC4)C[C@H]3C)c(-c3nc(C)no3)c(C)c2c1` [Compound 161] gave an IC50 at mu opioid receptor (MOR) of 100 to 1000 nM. Moreover, in assay [1], the “Selectivity (MOR/KOR)” value is “+++ (between 100- to 1000-fold selective)” and the IC50 is below 1 nM.
